Measurements reported in patent US12344631B2, “C17 polar-substituted heteroaromatic synthetic triterpenoids and methods of use thereof” (REATA PHARMACEUTICALS, INC., priority 2019, dated 2025).

Experiments:
[1] = biological target: CYP3A4 (Homo sapiens, UniProt P08684); test: CYP3A4 (midazolam) inhibition in human liver microsomes; settings: for inhibition at 10 min, 1 μM: human, human liver microsomes, probe midazolam (5 μM); for CYP3A4 inhibition compared with historical data for RTA 402 and RTA 408: comparable conditions (FIG. 1); for CYP3A4 inhibition lower than the corresponding unsubstituted compound: vs CC2, CC1 or CC3, 1 μM
Sequence of CYP3A4 (P08684 whole entry): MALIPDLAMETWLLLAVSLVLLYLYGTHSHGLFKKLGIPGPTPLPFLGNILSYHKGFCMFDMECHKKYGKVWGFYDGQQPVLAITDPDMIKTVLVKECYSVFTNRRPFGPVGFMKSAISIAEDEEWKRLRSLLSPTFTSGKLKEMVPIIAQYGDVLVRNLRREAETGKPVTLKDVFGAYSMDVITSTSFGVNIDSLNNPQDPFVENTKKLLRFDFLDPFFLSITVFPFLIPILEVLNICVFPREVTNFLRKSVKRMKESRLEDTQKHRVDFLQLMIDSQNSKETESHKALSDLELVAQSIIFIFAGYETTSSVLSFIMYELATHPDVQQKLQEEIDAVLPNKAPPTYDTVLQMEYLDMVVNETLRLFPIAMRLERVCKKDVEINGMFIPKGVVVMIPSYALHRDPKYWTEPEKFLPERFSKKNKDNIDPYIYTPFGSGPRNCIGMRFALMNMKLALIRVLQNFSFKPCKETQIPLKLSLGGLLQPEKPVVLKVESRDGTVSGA

[2] = system: AREc32 reporter cell line (antioxidant response element of rat Gsta2, Nrf2 target gene); test: AREc32 luciferase reporter activation; type: cell-based, human; settings: for AREc32 EC2X Relative to RTA 402 (fold) (Mean ± SD): average of ratios from replicate experiments, benchmark RTA 402; for AREc32 Relative to CC in Same Experiment (Mean ± SD): average of ratios from experiments with direct comparisons; for EC (2-fold): human, Arec32, 19 h, concentration increasing luminescence signal 2-fold above vehicle, nineteen hours, read-out: AREc32 EC2X (nM) (Mean ± SD)
Summary of the method: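 MCF-7-derived cells carry luciferase driven by eight copies of the rat Gsta2 ARE. EC2X was extrapolated from a nonlinear fit of fold increase over vehicle.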

[3] = system: AML-12 hepatocyte cell line; test: Glutathione assay (total glutathione, GSH-Glo); type: cell-based, mouse; settings: for EC50: Mus musculus, AML12, AML-12 cells, 24 hours, total glutathione, read-out: GSH EC50 (nM) (Mean ± SD); for GSH EC50 Relative to RTA 402 (fold) (Mean ± SD): benchmark RTA 402
Summary of the method: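 Mouse AML-12 hepatocytes were treated with compound (0.03 nM to 1000 nM, 0.1% DMSO) for 24 hours at 37° C., and total glutathione was measured by GSH-Glo luminescence against a glutathione standard curve. EC50 values came from nonlinear regression, with basal glutathione set to 0% and the maximal compound-induced level set to 100%.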

[4] = system: RAW 264.7 cells; test: Nitric oxide suppression assay (IFNγ-induced NO production); type: cell-based, mouse; settings: for IC50: Mus musculus, RAW264.7, RAW 264.7 cells, 2 h pretreatment, 20 ng/mL interferon gamma 24 h, nitrite by Griess, read-out: NO IC50 (nM) (Mean ± SD); for NO IC50 Relative to RTA 402 (fold) (Mean ± SD): average of ratios from replicate experiments, benchmark RTA 402
Summary of the method: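 Mouse RAW 264.7 macrophages in RPMI 1640 with 0.5% FBS were pretreated with compounds for 2 h at 37° C (0.1% DMSO final), then stimulated with 20 ng/mL IFNγ for 24 h. Nitrite in the supernatant was read at 525 nm against standards and normalized to DMSO/IFNγ wells. IC50 values were fitted with dependence on WST-1 viability.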

Compound | inhibition at 10 min, 1 μM [1] | AREc32 EC2X Relative to RTA 402 (fold) (Mean ± SD) [2] | AREc32 Relative to CC in Same Experiment (Mean ± SD) ([2]; comparison compound CC1) | EC (2-fold) [2] | EC50 [3] | GSH EC50 Relative to RTA 402 (fold) (Mean ± SD) [3] | IC50 [4] | NO IC50 Relative to RTA 402 (fold) (Mean ± SD) [4] | CYP3A4 inhibition compared with historical data for RTA 402 and RTA 408 [1] | CYP3A4 inhibition lower than the corresponding unsubstituted compound [1] | AREc32 Relative to CC in Same Experiment (Mean ± SD) ([2]; comparison compound CC2) | AREc32 Relative to CC in Same Experiment (Mean ± SD) ([2]; comparison compound CC3)
Cc1nnc([C@]23CCC(C)(C)C[C@H]2[C@H]2C(=O)C=C4[C@@]5(C)C=C(C#N)C(=O)C(C)(C)[C@@H]5CC[C@@]4(C)[C@]2(C)CC3)o1 [CC1, reference compound] | 20.7% | 0.79 ± 0.24 fold | 1.00 | 10.6 ± 2.73 nM | 1.09 ± 0.13 nM | 0.70 ± 0.12 fold | 2.05 nM | 0.78 ± 0.10 fold |  |  |  | 
CC1(C)CC[C@]2(c3nc(CF)no3)CC[C@]3(C)[C@H](C(=O)C=C4[C@@]5(C)C=C(C#N)C(=O)C(C)(C)[C@@H]5CC[C@]43C)[C@@H]2C1 [Compound T12] | 29.7% | 0.53 ± 0.12 fold |  | 6.87 ± 1.57 nM | 0.82 ± 0.4 nM | 0.50 ± 0.19 fold | 1.27 nM | 0.52 ± 0.12 fold | reduced CYP3A4 inhibition | 35% | 0.75 ± 0.05 | 
Cc1noc([C@]23CCC(C)(C)C[C@H]2[C@H]2C(=O)C=C4[C@@]5(C)C=C(C#N)C(=O)C(C)(C)[C@@H]5CC[C@@]4(C)[C@]2(C)CC3)n1 [CC2, reference compound] | 45.8% | 0.74 ± 0.16 fold |  | 8.59 ± 1.88 nM | 2 ± 1.24 nM | 0.80 ± 0.16 fold | 1.98 nM | 0.70 ± 0.18 fold |  |  | 1.00 | 
C[C@@H]1C(=O)C(C#N)=C[C@]2(C)C3=CC(=O)[C@@H]4[C@@H]5CC(C)(C)CC[C@]5(c5nc(CF)no5)CC[C@@]4(C)[C@]3(C)CC[C@@H]12 [Compound T34] | 29.4% | 0.36 ± 0.05 fold |  | 4.5 ± 0.66 nM | 0.35 ± 0.06 nM | 0.18 ± 0.02 fold | 0.93 nM | 0.28 ± 0.06 fold | reduced CYP3A4 inhibition | 22% |  | 0.76 ± 0.14
Cc1noc([C@]23CCC(C)(C)C[C@H]2[C@H]2C(=O)C=C4[C@@]5(C)C=C(C#N)C(=O)[C@@H](C)[C@@H]5CC[C@@]4(C)[C@]2(C)CC3)n1 [CC3, reference compound] | 37.7% | 0.66 ± 0.21 fold |  | 7.11 ± 1.15 nM | 1.16 ± 0.53 nM | 0.43 ± 0.14 fold | 1.34 nM | 0.40 ± 0.06 fold |  |  |  | 1.00
CC1(C)CC[C@]2(c3nnc(CF)o3)CC[C@]3(C)[C@H](C(=O)C=C4[C@@]5(C)C=C(C#N)C(=O)C(C)(C)[C@@H]5CC[C@]43C)[C@@H]2C1 [Compound T11] | 17.7% | 0.25 ± 0.08 fold | 0.27 ± 0.03 | 3.23 ± 0.77 nM | 0.54 ± 0.29 nM | 0.32 ± 0.13 fold | 0.98 nM | 0.37 ± 0.07 fold | reduced CYP3A4 inhibition | 15% |  | 
